# Reference: patent EP1180991B1, “GAMBOGIC ACID DERIVATIVES AS ACTIVATORS OF CASPASES AND INDUCERS OF APOPTOSIS” (Cytovia, Inc., priority 1999, dated 2000)
# Legend:
# T-47D [1] = experiment: Caspase cascade activation by known antineoplastic compounds (Example 92); details: Homo sapiens, T47D, 24 h, read-out: ratio of the net RFU value for test compounds to that of control samples (caspase cascade activation)
# Protocol: (§8) The samples were mixed by agitation and then incubated at 37° C for 24 h in a 5% CO2-95% humidity incubator. […] The samples were mixed by agitation and incubated for 3 h at room temperature. […] After the 3 h incubation, the samples were read for fluorescence as above (T = 3 h).
# (§9) The Relative Fluorescence Unit values (RFU) were used to calculate the sample readings as follows: RFU(T=3⁢hr) −Control RFU(T=0) = Net RFU(T=3⁢hr) [formula]
# (§10) The activity in caspase cascade activation was determined by the ratio of the net RFU value for test compounds to that of control samples.
# PC-3 [2] = experiment: as above; details: Homo sapiens, PC-3, 24 h, read-out: ratio of the net RFU value for test compounds to that of control samples (caspase cascade activation)
# Protocol: as §8, §9, §10
# PC-3 [3] = experiment: Caspase cascade activation assay (Example 90); type: cell-based, human; details: for caspase activity (Ratio): PC-3, 24 h incubation, 0.16 to 10 µM final, net RFU ratio to control
# Protocol: (§1) Human breast cancer cell lines T-47D and ZR-75-1, human prostate cancer cell line PC-3, human leukemia cancer cell line HL-60 and human non-transformed fibroblast cell line MRC-5 cells were grown according to media component mixtures designated by The American Type Culture Collection + 10% FCS (Life Technologies, Inc.), in a 5% CO2 -95% humidity incubator at 37° C. T-47D, ZR-75-1 and PC-3 cells were maintained at a cell density between 30 and 80% confluency and for HL-60 at a cell density of 0.1 to 0.6 x 10^6 cells/ml. Cells were harvested at 600xg and resuspended at 0.65 x 10^6 cells/ml into appropriate media + 10% FCS. […] The samples were mixed by agitation and incubated at room temperature.
# (§2) The EC50 (nM) was determined by a sigmoidal dose-response calculation (Prism 2.0, GraphPad Software Inc.). Caspase Activity and Potency
# T-47D [4] = experiment: Caspase cascade activation assay (Example 90); type: cell-based, human; details: for caspase activity (Ratio): T-47D, 24 h incubation, 0.16 to 10 µM final, net RFU ratio to control
# Protocol: as §1, §2
# PC3 cells = experiment: PARP cleavage, western blot (Example 98); type: cell-based, human; details: 1 µM, 2 h and 4 h (Fig. 5D)
# Protocol: (§3) Cleavage of the enzyme poly(ADP)ribose polymerase (PARP) by caspase-3 and related proteases is considered to be one of the molecular hallmarks of caspase-mediated apoptosis. Therefore, the ability of gambogic acid to induce PARP cleavage in four different human tumor cell lines (Jurkat cells, HL-60 cells, T47D cells and PC3 cells) was determined.
# (§4) […] Control cultures were treated with a drug vehicle (DMSO), or the well-characterized apoptosis inducer, staurosporine. At the end of the apoptosis induction period, the cells were harvested, washed once with PBS, quick-frozen on dry ice, and stored at -80° C. The cells were then lysed in a standard immunoblotting lysis buffer and samples of the lysates were electrophoresed on 4% to 20% gradient polyacrylamide gels. The proteins in the gels were then transferred to PVDF membranes and probed with a commercially-available rabbit polyclonal antibody to PARP.
# T47D cells = experiment: PARP cleavage, western blot (Example 98); type: cell-based, human; details: 1 µM, 2 h and 4 h (Fig. 5C)
# Protocol: as §3, §4
# HL-60 [5] = experiment: Caspase cascade activation assay (Example 90); type: cell-based, human; details: for caspase activity (Ratio): HL-60, 24 h incubation, 0.16 to 10 µM final, net RFU ratio to control
# Protocol: as §1, §2
# MRC-5 [6] = experiment: Caspase cascade activation assay (Example 90); type: cell-based, human; details: for caspase activity (Ratio): MRC-5 non-transformed fibroblasts, 24 h incubation, 0.16 to 10 µM final, net RFU ratio to control
# Protocol: as §1, §2
# ZR-75-1 [7] = experiment: Caspase cascade activation assay (Example 90); type: cell-based, human; details: for caspase activity (Ratio): ZR-75-1, 24 h incubation, 0.16 to 10 µM final, net RFU ratio to control
# Protocol: as §1, §2
# A-549 = experiment: Inhibition of cell proliferation (GI50) and cell death (LC50), CellTiter 96 (Example 91); type: cell-based; details: Homo sapiens, A549, 48 h
# Protocol: (§5) T-47D, ZR-75-1, PC-3, human prostate cancer cell line DU-145, human non-small cell lung cancer cell line A-549, human small cell lung cancer cell line SHP-77, HL-60 and MRC-5 cells were grown and harvested as in Example 90. […] The samples were mixed by agitation and incubated at 37° C for 2-4 h in a 5% CO2-95% humidity incubator. […] This determines the possible background absorbance of the test compounds. No absorbance for gambogic acid or its analogs or derivatives was found at 490 nm. After the 2-4 h incubation, the samples were read for absorbance as above (ATest).
# (§6) The samples were mixed by agitation and incubated at 37° C for 2-4 h in a 5% CO2-95% humidity incubator. Absorbance was read as above, (AT=0) defining absorbance for initial cell number used as baseline in GI50 determinations and (Amin) defining absorbance for media alone used as baseline in LC50 determinations.
# (§7) GI50 (dose for50%inhibition of cell proliferation) 50 = 100 x [(ATest-AT = 0)/(Amax-AT = 0)] [formula] LC50 (dose for50%cell death) 50 = 100 x [(ATest-Amin)/(AT = 0-Amin)] [formula]
# DU-145 = experiment: as above; type: cell-based; details: Homo sapiens, DU-145, 48 h
# Protocol: as §5, §6, §7
# HL-60 [8] = experiment: as above; type: cell-based; details: Homo sapiens, HL-60, 48 h
# Protocol: as §5, §6, §7
# PC-3 [9] = experiment: as above; type: cell-based; details: Homo sapiens, PC-3, 48 h
# Protocol: as §5, §6, §7
# SHP-77 = experiment: as above; type: cell-based; details: Homo sapiens, SHP77, 48 h
# Protocol: as §5, §6, §7
# T-47D [10] = experiment: as above; type: cell-based; details: Homo sapiens, T47D, 48 h
# Protocol: as §5, §6, §7
# ZR-75-1 [11] = experiment: as above; type: cell-based; details: Homo sapiens, ZR-75-1, 48 h
# Protocol: as §5, §6, §7
# MRC-5 [12] = experiment: as above; type: cell-based, human
# Protocol: as §5, §6, §7
# [13] = test system: several cancer cell lines; details: cited from earlier work
# KB = details: Lin et al. 1993; cited from earlier work
# KB-V1 = details: Lin et al. 1993; cited from earlier work
smiles,measurement,setting,value
COc1cccc2c1C(=O)c1c(O)c3c(c(O)c1C2=O)C[C@@](O)(C(=O)CO)C[C@@H]3O[C@H]1C[C@H](N)[C@H](O)[C@H](C)O1 [Doxorubicin],fold induction at 10 µM,T-47D [1],1.3
same,fold induction at 10 µM,PC-3 [2],1.1
"COC(=O)/C(C)=C\CC12OC(C)(C)C3CC(C=C4C(=O)c5c(OC)c6c(c(CC=C(C)C)c5OC431)OC(C)(CCC=C(C)C)C=C6)C2=O (centres unmarked) [Example 6, Methyl-6-methoxy-gambogate]",caspase activity (Ratio),PC-3 [3],4.5
same,caspase activity (Ratio),T-47D [4],12.0
"CN[C@@H]1C[C@H]2O[C@@](C)([C@@H]1OC)n1c3ccccc3c3c4c(c5c6ccccc6n2c5c31)C(=O)NC4 [staurosporine, reference compound]",PARP cleavage,PC3 cells,no cleavage of PARP
same,PARP cleavage,T47D cells,no cleavage of PARP
"COC(=O)/C(C)=C\CC12OC(C)(C)C3CC(C=C4C(=O)c5c(O)c6c(c(CC=C(C)C)c5OC431)OC(C)(CCC=C(C)C)C=C6)C2=O (centres unmarked) [Example 4, Methyl Gambogate]",caspase activity (Ratio),HL-60 [5],7.7
same,EC50,"HL-60 [5]; Homo sapiens, HL-60, 24 h",339 nM
same,EC50,"MRC-5 [6]; Homo sapiens, MRC5, 24 h",501 nM
same,caspase activity (Ratio),MRC-5 [6],27.8
same,EC50,"PC-3 [3]; Homo sapiens, PC-3, 24 h",1330 nM
same,caspase activity (Ratio),PC-3 [3],3.9
same,EC50,"T-47D [4]; Homo sapiens, T47D, 24 h",484 nM
same,caspase activity (Ratio),T-47D [4],16.8
same,EC50,"ZR-75-1 [7]; Homo sapiens, ZR-75-1, 24 h",1640 nM
same,caspase activity (Ratio),ZR-75-1 [7],14.9
same,GI50,A-549,500 nM
same,CC50,A-549; read-out: LC50,2000 nM
same,GI50,DU-145,500 nM
same,CC50,DU-145; read-out: LC50,500 nM
same,GI50,HL-60 [8],50 nM
same,CC50,HL-60 [8]; read-out: LC50,500 nM
same,GI50,PC-3 [9],500 nM
same,CC50,PC-3 [9]; read-out: LC50,500 nM
same,GI50,SHP-77,500 nM
same,CC50,SHP-77; read-out: LC50,500 nM
same,GI50,T-47D [10],40 nM
same,CC50,T-47D [10]; read-out: LC50,50 nM
same,GI50,ZR-75-1 [11],300 nM
same,CC50,ZR-75-1 [11]; read-out: LC50,500 nM
same,GI50,"MRC-5 [12]; Homo sapiens, MRC5, 48 h",200 nM
same,CC50,"MRC-5 [12]; MRC-5 non-transformed fibroblasts, 48 h, dose for 50% cell death",500 nM
"CC(C)=CCc1c(O)cc(O)c2c1O[C@]13C(=C[C@@H]4C[C@H]1C(C)(C)O[C@@]3(CC=C(C)C)C4=O)C2=O [forbesione, reference compound]",cytotoxicity,[13],significant cytotoxicity
CC[C@]1(O)C[C@@H]2CN(CCc3c([nH]c4ccccc34)[C@@](C(=O)OC)(c3cc4c(cc3OC)N(C)[C@H]3[C@@](O)(C(=O)OC)[C@H](OC(C)=O)[C@]5(CC)C=CCN6CC[C@]43[C@@H]65)C2)C1 [Vinblastine],fold induction at 10 µM,T-47D [1],0.9
same,fold induction at 10 µM,PC-3 [2],0.8
"CC(C)=CCc1c2c(c(O)c3c1OC14C(=CC5CC1C(C)(C)OC4(C/C=C(\C)CO)C5=O)C3=O)C=CC(C)(C)O2 (centres unmarked) [isomorellinol, reference compound]",cytotoxicity,KB,cytotoxic
same,cytotoxicity,KB-V1,cytotoxic
"CC(C)=CCC/C(C)=C/Cc1c(O)c(CC=C(C)C)c2c(c1O)C(=O)C1=CC3CC4C(C)(C)OC(C/C=C(/C)C(=O)O)(C3=O)C14O2 (centres unmarked) [Example 2, Gambogenic Acid]",caspase activity (Ratio),HL-60 [5],5.6
same,caspase activity (Ratio),MRC-5 [6],22.4
same,caspase activity (Ratio),PC-3 [3],2.9
same,caspase activity (Ratio),T-47D [4],16.9
same,caspase activity (Ratio),ZR-75-1 [7],14.2
"CC(C)=CCCC1(C)C=Cc2c(O)c3c(c(CC=C(C)C)c2O1)OC12C(=CC4CC1C(C)(C)OC2(C/C=C(/C)C(=O)N1CCCCC1)C4=O)C3=O (centres unmarked) [Example 5, Gambogyl Piperidine]",caspase activity (Ratio),HL-60 [5],5.2
same,caspase activity (Ratio),MRC-5 [6],12.6
same,caspase activity (Ratio),PC-3 [3],2.7
same,caspase activity (Ratio),T-47D [4],13.9
same,caspase activity (Ratio),ZR-75-1 [7],14.3
